Experimental data published in patent US12070470B2, “Topoisomerase inhibitor for mimicking the effect of ionizing radiations on T cells” (Novagray, priority 2018, dated 2024).

Tested on: CD8 T-lymphocyte
Assay: Etoposide-induced CD8 T-lymphocyte apoptosis procedure (flow cytometry, compared with 8 Gy RILA)
Assay type: cell-based, human
Conditions: for Corresponding etoposide concentration: x̃i^co: concentration corresponding to 8 Gy RILA, applied at the start of cell culture, whole blood
Procedure: Blood samples were purchased from Etablissement Français du Sang (EFS) with the convention number 21PLER2016-0100 AV01. Blood samples were collected from healthy donors in 5 mL heparinized tubes without separation gel.
Blood cells were grown in RPMI-1640 with glutamax (Fisher scientific, France) supplemented with 20% fetal calf serum (FCS) (EuroBio, France). Cells were maintained at 37° C. with 5% CO2 during the experiments.
Etoposide (EuroMedex) was solubilized in sterile dimethyl-sulfoxide (DMSO) at 75 mg/mL according to manufacturer instructions and stored at −80° C.
Before radiotherapy (RT), one blood sample was collected from each patient in a 5-mL heparinized tube. Twenty or twenty-four hours after blood collection, 200 μl of blood were aliquoted into a 6-well plate containing 2 mL of RPMI-20% FCS. All tests were carried out in triplicate for both 0 and 8 Gy. Ex-vivo irradiations were delivered after 24 hours of blood cell culture using the Xenx irradiator platform (XStrahl, UK). Then, the plates were immediately incubated for 48 hours at 37° C. (5% C02).
Samples were then centrifuged for 5 min at 300 g. The pellets were resuspended in phosphate-buffered saline (PBS) containing 10 μl of anti-human CD8-FITC antibody (Becton Dickinson, USA) and incubated for 20 minutes at room temperature. Then, red blood cells were lysed by addition of 4 ml of lysis buffer diluted 1:10 in water (Becton Dickinson, USA). After another 20 minutes incubation time at room temperature, samples were centrifuged for 5 min at 300 g and the pellets were washed with 3 ml of PBS. Pellets were suspended in 200 μl of PBS containing 25 μg/ml of propidium iodide (Sigma, France) and 5 μl of RNAse A at 10 mg/ml (Qiagen, France). The samples were analyzed by flow cytometry within the next hours, using the CytoFlex (Beckman Coulter, USA).
Different irradiation doses (0 Gy, 6 Gy, 8 Gy and 10 Gy) and different Etoposide concentrations (40 μg/mL, 60 μg/mL, 70 μg/mL, 80 μg/mL, 100 μg/mL) were applied to aliquots of the same blood sample.
Irradiations and culture were performed as previously described. The staining was performed 48 hours after the irradiation using the same protocol as previously described.
For the Etoposide treatment, two hundred microliters of blood were aliquoted into a 6-well plate containing 2 mL of RPMI-20% FCS-Etoposide 24 hours after blood cell collection. The cell culture media containing the different concentrations of etoposide were made fresh just before starting the cell culture. After etoposide incubation with blood cells for at least 50 hours (generally more than about 60 hours, in particular between 65 and 75 hours), samples were stained for flow cytometry analysis as described above.
Two mixed linear models with fixed intercept, fixed slope and random intercept were used to model the RILA rate evolution according to the compound or to the irradiation dose in Gray.

COc1cc([C@@H]2c3cc4c(cc3[C@@H](O[C@@H]3O[C@@H]5CO[C@@H](C)O[C@H]5[C@H](O)[C@H]3O)[C@H]3COC(=O)[C@H]23)OCO4)cc(OC)c1O [etoposide]
Corresponding etoposide concentration: x̃i^co (Donor 1): 66.2 µg/mL | Corresponding etoposide concentration: x̃i^co (Donor 2): 70.1 µg/mL | Corresponding etoposide concentration: x̃i^co (Donor 3): 67.1 µg/mL | Corresponding etoposide concentration: x̃i^co (Donor 4): 106.1 µg/mL | Corresponding etoposide concentration: x̃i^co (Donor 5): 87.1 µg/mL | concentration at which the apoptosis rate obtained after irradiation is achieved (treatment applied at the start of blood cell culture): less than 150 μg/ml
